Data: US10440955B2, “Methods comprising a biocidal polyamine” (Curza Global, LLC, priority 2013, dated 2019)
Structures can show the parent of a compound that is named as a salt. Each block holds one compound with its values, some of them ahead of it.

Columns and labels:
[1] = system: MRSA biofilms; assay: EBEC, high number biofilms on PEEK membranes, 10^9 to 10^2 CFU/PEEK membrane in 24 hours; format: cell-based, Staphylococcus aureus
Procedure: In addition to determining the MIC and the MBEC of polyamine compounds against planktonic bacteria and low number biofilms, our group wanted to determine the efficacy of polyamine compounds against high number biofilms. To do so, biofilms were grown on the surface of polyetheretherketone (PEEK) membranes using a membrane biofilm reactor. This reactor is similar to the CDC biofilm reactor, but rather than growing biofilms on coupon surfaces, the reactor was modified to hold PEEK membranes. In short, to grow biofilms within this system, 500 mL of brain heart infusion (BHI) broth were inoculated with 1 mL of a 0.5 McFarland. The reactor was placed on a hot plate set at 34° C. and the bacteria were grown under batch conditions for 24 hours. Following this protocol, biofilms typically grow to 10^9 CFU/PEEK membrane. […] A solution of 10% BHI was then flowed through the reactor at a rate of 6.94 mL/min for an additional 24 hours. PEEK membranes were then removed and placed into 2 mL of CAMHB that contained a desired concentration of polyamine compound or antibiotic. The EBEC was defined as the concentration of antimicrobial required to reduce a biofilm from approximately 10^9 CFU/PEEK membrane to approximately 10^2 CFU/PEEK membrane in a 24-hour period.
In addition to determining the MIC and the MBEC of compounds against planktonic bacteria and low number biofilms, the efficacy of the compounds of the invention against high number biofilms is determined. To do so, biofilms are grown on the surface of PEEK membranes using a membrane biofilm reactor (Williams, D. L., Haymond, B. S. & Bloebaum, R. D. Use of delrin plastic in a modified CDC biofilm reactor. Res J Microbiol 6, 425-429 (2011); Williams, D. L., Woodbury, K. L., Haymond, B. S., Parker, A. E. & Bloebaum, R. D. A modified CDC biofilm reactor to produce mature biofilms on the surface of PEEK membranes for an in vivo animal model application. Curr Microbiol 62, 1657-1663 (2011); Williams, D. L. et al., In Vivo Efficacy of a Silicone—Cationic Steroid Antimicrobial Coating to Prevent Implant-Related Infection. Biomaterials 33, 8641-8656 (2012); Williams, D. L. et al., Experimental model of biofilm implant-related osteomyelitis to test combination biomaterials using biofilms as initial inocula. J Biomed Mat Res A 100, 1888-1900 (2012)). This reactor is similar to the CDC biofilm reactor, but rather than growing biofilms on coupon surfaces, the reactor was modified to hold PEEK membranes. In short, to grow biofilms within this system, 500 mL of brain heart infusion (BHI) broth is inoculated with 1 mL of a 0.5 McFarland. The reactor is placed on a hot plate set at 34° C. and the bacteria grown under batch conditions for 24 hours. A solution of 10% BHI will then be flowed through the reactor at a rate of 6.94 mL/min for an additional 24 hours. Following this protocol, biofilms typically grow to 10^9 CFU/PEEK membrane. PEEK membranes is removed and placed into 2 mL of CAMHB that contain a desired concentration of the test compound. The EBEC is defined as the concentration of antimicrobial required to reduce a biofilm from approximately 10^9 CFU/PEEK membrane to approximately 10^2 CFU/PEEK membrane in a 24-hour period.
EBEC data were collected to determine the efficacy of CZ-52, CZ-58 and traditional antibiotics against high number biofilms containing approximately 10^9 CFU grown on the surface of a polyetheretherketone (PEEK) membrane.

[2] = system: A. baumannii biofilms; assay: as above; format: cell-based, Acinetobacter baumannii; conditions: Table 3B c4, group head missing
[3] = system: A. baumannii biofilms; assay: MBEC, MBEC Inoculation Tray (Innovotech), to 10^2 CFU/peg in 24 hours; format: cell-based, Acinetobacter baumannii; conditions: Table 3B c1, group head missing, probably MBEC
[4] = system: MRSA biofilms; assay: as above; format: cell-based; conditions: Staphylococcus aureus, read-out: MICs (μg/mL): MRSA
[5] = system: MRSA biofilms; assay: EBEC, high number biofilms on PEEK membranes, 10^9 to 10^2 CFU/PEEK membrane in 24 hours; format: cell-based; conditions: Staphylococcus aureus, read-out: MICs (μg/mL) II: MRSA
[6] = Acinetobacter baumannii, read-out: MICs (μg/mL) II: A. baumannii

MIC [2, 6]: > 5000 µg/mL
MIC [3, 6]: > 500 µg/mL
MIC ([4]; Table 3A c4, group head missing, probably MBEC): > 500 µg/mL
MIC ([5]; Table 3B c2, group head missing): > 5000 µg/mL
Compound: NCCCNCCCNCc1ccccc1 [CZ-7, benzylnorspermidine]
EBEC μg/mL (μM) MRSA ([1]; Table 4): >5,000 μg/mL
EBEC μg/mL (μM) MRSA ([1]; Table 4, value in parentheses): (>22,590) μM

Compound: NCCCNCCCNCc1cccc(CNCCCNCCCN)c1 [CZ-25, N^1,N^1′-(1,3-phenylenebis(methylene))bis(N3-(3-ammoniopropyl)propane-1,3-diaminium) chloride]
EBEC μg/mL (μM) MRSA ([1]; Table 4): >5,000 μg/mL

Compound: NCCCNCCCNCc1cc(CNCCCNCCCN)cc(CNCCCNCCCN)c1 [CZ-52, N^1,N^1′,N^1″-(benzene-1,3,5-triyltris(methylene))tris(N^3-(3-aminopropyl)propane-1,3-diamine), hydrochloride salt]
EBEC μg/mL (μM) MRSA ([1]; Table 4): 250 µg/mL
EBEC μg/mL (μM) MRSA ([1]; Table 4, value in parentheses): (500) μM

Compound: NCCCNCCCNCc1cc(CNCCCNCCCN)cc(-c2ccccc2)c1 [CZ-58, N^1,N^1′-([1,1′-biphenyl]-3,5-diylbis(methylene))bis(N^3-(3-ammoniopropyl)propane-1,3-diaminium) chloride]
EBEC μg/mL (μM) MRSA ([1]; Table 4): 1,500 μg/mL

Compound: CN[C@H](CC(C)C)C(=O)N[C@H]1C(=O)N[C@@H](CC(N)=O)C(=O)N[C@H]2C(=O)N[C@H]3C(=O)N[C@H](C(=O)N[C@H](C(=O)O)c4cc(O)cc(O)c4-c4cc3ccc4O)[C@H](O)c3ccc(c(Cl)c3)Oc3cc2cc(c3O[C@@H]2O[C@H](CO)[C@@H](O)[C@H](O)[C@H]2O[C@H]2C[C@](C)(N)[C@H](O)[C@H](C)O2)Oc2ccc(cc2Cl)[C@H]1O [vancomycin, reference compound]
EBEC μg/mL (μM) MRSA ([1]; Table 4): >>25,000 μg/mL
reduction of biofilms of MRSA ([1]; at 25,000 μg/mL, 24-hour period): < 1 log10 unit
MIC [4]: > 500 µg/mL
MIC [5]: > 25000 µg/mL

Compound: Polymyxin B sulfate [reference compound]
MICs (μg/mL) II: A. baumannii [2]: 1,000 μg/mL
MICs (μg/mL) II: A. baumannii [3]: 50 µg/mL
